Measurements reported in patent US10118942B2, “Toll-like receptor 2 ligands and methods of making and using thereof” (H. LEE MOFFITT CANCER CENTER AND RESEARCH INSTITUTE, INC., priority 2015, dated 2018).
pEC50, pIC50, pKi: −log10 of the molar value. “Also recorded” adds a separate entry of the source. Where two headings read alike, the source gives them in different places.

How the values were obtained:
TLR2 [1] = biological target: T1, TLR2 (Homo sapiens, UniProt O60603); test: In vitro TLR2 functional bioassay (NF-κB luciferase reporter); format: cell-based; details: HEK-293/hTLR2 cells; for agonist activity compared to TLR2 agonist controls (Pam2CSK4, Pam3CSK4, HKLM): all at 1 μg/mL
Description: The in vitro TLR2 functional bioassay was developed and optimized for use in high-throughput screening of soluble compound libraries to identify both TLR2 agonists and antagonists. The bioassay measures the induction of NF-κB signaling via TLR2 in HEK-293/hTLR2 cells (Invivogen) and parental HEK-293 cells as a negative control. Cells were seeded at a density of 40,000 per well using a WellMate microplate dispenser (Thermo Fisher Scientific/Matrix) in black 96-well plates with opaque white wells (PerkinElmer, Waltham, Mass.) and then incubated at 37° C. On day 2, the cells were transiently transfected with pNifty-Luc(InvivoGen, San Diego, Calif.), an NF-κB inducible reporter plasmid expressing the luciferase reporter gene (Schindler et al., Three NF-kappa B binding sites in the human E-selectin gene required for maximal tumor necrosis factor alpha-induced expression. Mol Cell Biol 1994, 14(9):5820-31) using an optimized 4:1 ratio by volume of FugeneHD transfection reagent (Promega, Madison, Wis.) to pNifty-Luc plasmid DNA (1 μg/mL). On day 3, the cells were stimulated with either test peptides or controls adjusted to a final concentration of 1 μg/mL using a NanoDrop spectrophotometer, ND1000 (Thermo Fisher Scientific). Synthetic di- and triacylated LP ligands, Pam2CSK4 and Pam3CSK4 (InvivoGen), were used as positive controls. TNF-α (InvivoGen) was also used as a transfection control that induces NF-κB independently of TLR2. On day 4 after 24 h of peptide stimulation, luciferase induced activity by the induction of NF-κB was measured. The medium was aspirated from the wells using an ELx405 SelectCW plate washer (BioTek, Winooski, Vt.), and 150 μg/mL D-luciferin (Gold Biotechnology, St. Louis, Mo.) was dispensed using the microplate dispensor. The plates were incubated at 37° C. for 5 min. The luminescence intensity was measured using the standard luminescence protocol on a Victor X4 multilabel plate reader equipped with a plate stacker for readout of multiple plates at a time (PerkinElmer, Waltham, Mass.). For each in vitro TLR2 bioassay, at least three different experiments were performed in triplicate (n≥3). Data were analyzed with GraphPad Prism software, and curves were generated with the appropriate nonlinear fit regression analysis.
Target sequence in this assay (O60603 21-784): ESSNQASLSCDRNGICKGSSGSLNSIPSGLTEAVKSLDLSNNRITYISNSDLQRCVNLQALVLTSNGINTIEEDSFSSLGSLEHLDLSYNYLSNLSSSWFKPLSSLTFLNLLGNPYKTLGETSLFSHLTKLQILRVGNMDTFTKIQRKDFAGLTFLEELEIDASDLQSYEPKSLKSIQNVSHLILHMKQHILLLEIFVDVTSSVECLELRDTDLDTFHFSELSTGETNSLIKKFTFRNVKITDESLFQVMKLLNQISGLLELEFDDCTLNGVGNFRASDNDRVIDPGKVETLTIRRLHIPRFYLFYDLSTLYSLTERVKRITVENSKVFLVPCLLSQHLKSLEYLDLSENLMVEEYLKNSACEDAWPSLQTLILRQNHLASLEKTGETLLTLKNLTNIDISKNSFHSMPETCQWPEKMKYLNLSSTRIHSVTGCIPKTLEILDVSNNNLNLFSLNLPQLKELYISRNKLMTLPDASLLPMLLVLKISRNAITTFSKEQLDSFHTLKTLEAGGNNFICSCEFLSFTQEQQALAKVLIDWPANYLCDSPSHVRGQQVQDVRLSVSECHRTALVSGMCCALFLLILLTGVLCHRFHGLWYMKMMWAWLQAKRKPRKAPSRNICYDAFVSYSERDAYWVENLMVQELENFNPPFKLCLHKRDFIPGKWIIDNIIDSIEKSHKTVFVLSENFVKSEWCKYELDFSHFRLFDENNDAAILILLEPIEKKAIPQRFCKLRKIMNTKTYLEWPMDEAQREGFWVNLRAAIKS

TLR2 [2] = biological target: T1, TLR2; test: In cyto Europium TRF competition binding assay; set-up: SU.86.86 pancreatic cells with endogenous expression of TLR2 were used for the assay; host or cells: SU.86.86 pancreatic adenocarcinoma cells; details: competition with 90 nM Eu-labeled compound 11, SU.86.86 cells, 1 h 37° C.; read-out: TLR2 Binding Affinity (Ki)
Description: Europium Time-Resolved Fluorescence (TRF) binding assays were performed as described in Handle et al. with slight modifications using SU.86.86 cells plated in 96-well black plates with white opaque wells (PerkinElmer) (Handl et al., Lanthanide-based time-resolved fluorescence of in cyto ligand-receptor interactions. Anal Biochem 2004, 330(2):242-50; Handl et al., Development of a lanthanide-based assay for detection of receptor-ligand interactions at the delta-opioid receptor. Anal Biochem 2005, 343(2):299-307; Josan et al., Solid-phase synthetic strategy and bioevaluation of a labeled delta-opioid receptor ligand Dmt-Tic-Lys for in vivo imaging. Org Lett 2009, 11(12):2479-82). Cells were grown in the 96-well plates for 2 days reaching approximately 80% confluency. Competition binding assays were performed to test the TLR2 binding specificity of the test ligand using SU.86.86 cells. On the day of the experiment, the cell culture media was aspirated and 50 μL of nonlabeled test ligand was added in a series of decreasing concentrations (1 μM to 0.01 nM) followed by 50 μL of the competing Eu-labeled ligand 11 (Huynh et al., Novel Toll-like Receptor 2 Ligands for Targeted Pancreatic Cancer Imaging and Immunotherapy. J Med Chem 2012) at a fixed concentration of 90 nM. Cells were incubated with labeled and unlabeled ligands for 1 h at 37° C. Following incubation, cells were washed three times to remove unbound ligand. Next, 100 μL of DELFIA Enhancement Solution (PerkinElmer) was added to each well. Cells were incubated for 30 min at 37° C. prior to reading. The plates were read on PerkinElmer VICTOR X4 Multilabel reader using the standard Europium TRF protocol. To determine the mean statistical analysis was performed using GraphPad Prism software. Binding of the monoacyl TLR2 ligand (compound 14 of Table 2) was tested using the (Eu)DTPA chelate version of the diacyl TLR2 ligand (compound 11 used in Huynh et al, Id.) in a time-resolved fluorescence competition binding assay. SU.86.86 pancreatic cells with endogenous expression of TLR2 were used for the assay.
Target sequence in this assay (O60603 21-784): as above

[3] = test system: TLR2 expressing human pancreatic tumor xenografts (SU.86.86 cells); test: In vivo TLR2 selectivity (blocking) fluorescence imaging; set-up: species or system nude mice
Description: Female athymic nude mice 6-8 weeks old (Harlan) bearing human pancreatic tumor xenografts of SU.86.86 cells on the right flank were used. Mouse weights and tumor volumes were determined using caliper measurements and the formula: volume (mm3)=(length×width^2)/2. Images were acquired when the tumors reached an average size of 500 mm^3. For the blocked group, a co-injection of 100 nmol/kg of the fluorescently labeled Compound 16 plus 2 μmol/kg Pam2CSK4 (a 20-fold excess) was administered via tail vein injection; for the unblocked group, 100 nmol/kg Compound 16 was administered. Fluorescence images were acquired at time 0 and 24 h using the Caliper Xenogen IVIS200 system (PerkinElmer) with the 710-760 nm excitation and 810-875 nm emission filter set. The fluorescence was quantified using Living Image software, in which the quantified signals were corrected for both instrument and mouse background subtractions. The quantified fluorescence was then plotted using GraphPad Prism software and underwent statistical analysis using Student's t-test.

TLR2 [4] = biological target: T1, TLR2; details: Huynh et al.; read-out: binding affinity (Ki); cited from earlier work
Target sequence in this assay (O60603 21-784, species assumed): as the sequence (O60603 21-784) above

SU.86.86 cells = test: Cytotoxicity assay (Dojindo CCK8 Kit); format: cell-based, human; details: 24 hours, 21 to 2690 nM
Description: SU.86.86 were treated with Compound 16 for 24 hours over a range of concentrations (40 to 512 ng/mL corresponding to 21 to 2690 nM). Pam2CSK4 was added to SU.86.86 for 24 hours over the same range of concentrations (40 to 512 ng/mL). Three different experiments were performed in triplicate (n≥3). Data were analyzed with GraphPad Prism software.

Compound: CCCCCCCCCCCCCCCC(=O)OCCSC[C@H](NC(=O)COCC(=O)NCCCOCCOCCOCCCNC(C)=O)C(=O)NCC(=O)N[C@H](CO)C(=O)NCCCOCCOCCOCCCNC(=O)COCC(N)=O [Compound 14, Ac-Pego-Cys(S-[palmitoyloxyethyl])-Gly-DSer-PEGO-NH2]
- pEC50 (TLR2 [1]; 0.001 ng/mL to 10 μg/mL, read-out: EC50, TLR2 agonistic activity): 6.17
- agonist activity compared to TLR2 agonist controls (Pam2CSK4, Pam3CSK4, HKLM) (TLR2 [1]): significantly less agonist potency
- pKi (TLR2 [2]): 7.66

Compound: CCCCCCCCCCCCCCCC(=O)OCCSC[C@H](NC(=O)COCC(=O)NCCCOCCOCCOCCCNC(=O)c1ccc(C2=C(/C=C/C3=[N+](CCC)c4ccccc4C3(C)C)CCC/C2=C\C=C2\N(CCC)c3ccccc3C2(C)C)cc1)C(=O)NCC(=O)N[C@H](CO)C(=O)NCCCOCCOCCOCCCNC(=O)COCC(N)=O [Compound 16, IR780-Pego-Cys(S-[palmitoyloxyethyl])-Gly-DSer-PEGO-NH2]
- pIC50 (TLR2 [1]; 0.001 ng/mL to 10 μg/mL, read-out: IC50, inhibition of TLR2 agonistic activity of Pam2CSK4): 6.44
- agonist activity compared to TLR2 agonist controls (Pam2CSK4, Pam3CSK4, HKLM) (TLR2 [1]): significant decrease in agonist response
- agonist activity compared to TLR2 agonist controls (Pam2CSK4, Pam3CSK4, HKLM) (TLR2 [1]; listed as compound 16): complete loss in agonist activity
- mean tumor fluorescence, unblocked tumor/blocked tumor ([3]; 100 nmol/kg i.v., blocked with 2 μmol/kg Pam2CSK4 (20-fold excess), 24 h): 2.67 fold
- tumor fluorescence in blocked versus unblocked group ([3]; 100 nmol/kg i.v., blocked with 2 μmol/kg Pam2CSK4, 24 h post-injection): significant reduction in the ex vivo fluorescence signal; also recorded: significant reduction in the tumor fluorescence
- tumor fluorescence signal by in vivo imaging ([3]; 24 h post-injection): retention of fluorescence signal in the tumor
- pKi (TLR2 [2]): 7.80

Compound: CCCCCCCCCCCCCCCC(=O)OC[C@H](CSC[C@H](NC(=O)COCC(=O)NCCCOCCOCCOCCCNC(C)=O)C(=O)NCC(=O)N[C@H](CO)C(=O)NCCCOCCOCCOCCCNC(=O)COCC(N)=O)OC(=O)CCCCCCCCCCCCCCC [compound 10, reference compound]
- pKi (TLR2 [4]): 7.62
- pKi (TLR2 [2]): 7.04

Compound: Pam2CSK4 [reference compound]
- cell viability (SU.86.86 cells): cell viability decreases at higher concentrations past 336 nM
